Laboratory results published in ChEMBL document CHEMBL4359817 (J Med Chem, 2019).
≈ marks a conversion by molar mass, not a printed value. One block for each compound: values may come before it.

Assays:
[1] = Lipophilicity, log D of the compound at pH 7.4; format: physicochemical; settings: buffer
[2] = Oral bioavailability in Han Wistar rat; format: ADME, organism-based; settings: in vivo
[3] = Intrinsic clearance in human microsomes; format: ADME, Microsome
[4] = Intrinsic clearance in human hepatocytes assessed per million cells; format: ADME, cell-based, Hepatocyte; settings: read-out: CLH
[5] = Volume of distribution at steady state in iv or po dosed Han Wistar rat; format: ADME, organism-based; settings: in vivo, read-out: Vdss
[6] = Intrinsic clearance in rat hepatocytes assessed per million cells; format: ADME, cell-based, Hepatocyte; settings: read-out: CLH
[7] = Clearance in iv or po dosed Han Wistar rat; format: ADME, organism-based; settings: in vivo
[8] = Thermodynamic aqueous solubility of the compound at pH 7.4; format: physicochemical; settings: read-out: Therm_solubility
[9] = Time at which plasma concentration stays above in vitro fGI50 for antiproliferative activity against human NCI-H1703 cells in nude mouse at 100 mg/kg, po; format: organism-based; settings: in vivo
[10] = Oral bioavailability in dog at 1 mg/kg; format: ADME, organism-based, Canis lupus familiaris; settings: in vivo
[11] = Clearance in dog at 1 mg/kg, po or 0.5 mg/kg, iv; format: ADME, organism-based, Canis lupus familiaris; settings: in vivo
[12] = Thermodynamic aqueous solubility of the compound at pH 7.4 using amorphous form of sample; format: physicochemical; settings: read-out: Therm_solubility
[13] = Volume of distribution at steady state in dog at 1 mg/kg, po or 0.5 mg/kg, iv; format: ADME, organism-based, Canis lupus familiaris; settings: in vivo, read-out: Vdss
[14] = Drug level in SCID mouse plasma xenografted with human NCI-H1703 cells assessed as free fraction at 100 mg/kg, po administered once daily via gavage for 21 days measured 4 hrs post-last dose; format: ADME, organism-based; settings: in vivo
[15] = Drug level in SCID mouse plasma xenografted with human NCI-H1703 cells assessed as free fraction at 100 mg/kg, po administered once daily via gavage for 21 days measured 24 hrs post-last dose; format: ADME, organism-based; settings: in vivo
[16] = Thermodynamic aqueous solubility of the compound at pH 7.4 using crystalline form of sample; format: physicochemical; settings: read-out: Therm_solubility
[17] = Drug level in SCID mouse plasma xenografted with human NCI-H1703 cells at 100 mg/kg, po administered once daily via gavage for 21 days measured 4 hrs post-last dose; format: ADME, organism-based
[18] = Drug level in SCID mouse plasma xenografted with human NCI-H1703 cells at 100 mg/kg, po administered once daily via gavage for 21 days measured 24 hrs post-last dose; format: ADME, organism-based
[19] = Time at which plasma concentration stays above in vitro fGI50 for antiproliferative activity against human NCI-H1703 cells in SCID mouse at 100 mg/kg, po; format: organism-based; settings: in vivo
[20] = Clearance in Han Wistar rat at 2 mg/kg, po or 0.5 mg/kg, iv; format: ADME, organism-based; settings: in vivo
[21] = Volume of distribution at steady state in Han Wistar rat at 2 mg/kg, po or 0.5 mg/kg, iv; format: ADME, organism-based; settings: in vivo, read-out: Vdss
[22] = Oral bioavailability in Han Wistar rat at 2 mg/kg; format: ADME, organism-based; settings: in vivo
[23] = Time at which plasma concentration stays above in vitro GI50 for antiproliferative activity against human NCI-H1703 cells in SCID mouse at 100 mg/kg, po; format: organism-based; settings: in vivo
[24] = Clearance in CD1 mouse at 100 mg/kg, po; format: ADME, organism-based; settings: in vivo
[25] = Time at which plasma concentration stays above in vitro fGI50 for antiproliferative activity against human NCI-H1703 cells in SCID mouse at 100 mg/kg, po administered twice daily; format: organism-based; settings: in vivo
[26] = Oral bioavailability in Han Wistar rat at 1 mg/kg; format: ADME, organism-based; settings: in vivo
[27] = Clearance in Han Wistar rat at 1 mg/kg, po or 0.5 mg/kg, iv; format: ADME, organism-based; settings: in vivo
[28] = Volume of distribution at steady state in Han Wistar rat at 1 mg/kg, po or 0.5 mg/kg, iv; format: ADME, organism-based; settings: in vivo, read-out: Vdss

Compound: O=C(Cc1ccccc1)Nc1nnc(CCSCCc2nnc(NC(=O)Cc3ccccc3)s2)s1
logD ([1]; read-out: logD): > 4

Compound: O=C(Cc1cccc(OC(F)(F)F)c1)Nc1ccc(CCCCc2nnc(NC(=O)Cc3ccccn3)s2)nn1
bioavailability [2]: 32% | microsomal CLint [3]: 15 µL/min/mg | logD [1]: 3.9 | hepatocyte CLint [4]: 8 µL/min/1e6 cells | Vd [5]: 3 L/kg | hepatocyte CLint [6]: 30.2 µL/min/1e6 cells | clearance [7]: 14 mL/min/kg

Compound: O=C(Cc1ccccc1)Nc1nnc(CCCCCc2nnc(NC(=O)Cc3ccccc3)s2)s1
solubility thermodynamic [8]: < 0.6 µM

Compound: CO[C@H](C(=O)Nc1nnc(N[C@@H]2CCN(c3nccnn3)C2)s1)c1ccccc1
Time [9]: 24 h | bioavailability [2]: 41% | microsomal CLint [3]: 3 µL/min/mg | bioavailability [10]: 90% | logD ([1]; read-out: logD): 1.7 | hepatocyte CLint [4]: 3 µL/min/1e6 cells | clearance [11]: 1 mL/min/kg | Vd [5]: 0.6 L/kg | hepatocyte CLint [6]: 4.1 µL/min/1e6 cells | solubility thermodynamic [12]: 516 µM (≈ 213 µg/mL) | clearance [7]: 12 mL/min/kg

Compound: CO[C@H](C(=O)Nc1nnc(N[C@@H]2CCN(c3cccnn3)C2)s1)c1ccccc1
Vd [13]: 0.3 L/kg | bioavailability [2]: 47% | Cp(f) [14]: 0.582 µM | microsomal CLint [3]: < 3 µL/min/mg | bioavailability [10]: 60% | Cp(f) [15]: 0.592 µM | solubility thermodynamic [16]: 78 µM (≈ 32.1 µg/mL) | logD ([1]; read-out: logD): 1.9 | hepatocyte CLint [4]: < 1 µL/min/1e6 cells | concentration at 4 h [17]: 3.57 µM | clearance [11]: 4 mL/min/kg | Vd [5]: 2.4 L/kg | hepatocyte CLint [6]: 4.6 µL/min/1e6 cells | concentration at 24 h [18]: 3.63 µM | clearance [7]: 35 mL/min/kg | Time [19]: 24 h

Compound: O=C(Cc1ccccc1)Nc1nnc(N[C@@H]2CCN(c3nccnn3)C2)s1
clearance [20]: 54 mL/min/kg | microsomal CLint [3]: < 3 µL/min/mg | logD ([1]; read-out: logD): 2.06 | solubility thermodynamic [8]: 94 µM (≈ 36 µg/mL) | hepatocyte CLint [6]: 5 µL/min/1e6 cells | Vd [21]: 2 L/kg | bioavailability [22]: 83%

Compound: Nc1nnc(N[C@@H]2CCN(c3ccc(NC(=O)Cc4ccccc4)nn3)C2)s1
logD ([1]; read-out: logD): 0.85 | solubility thermodynamic [8]: 20 µM (≈ 7.93 µg/mL)

Compound: CN(CCN(C)c1nnc(NC(=O)Cc2ccccc2)s1)c1nnc(NC(=O)Cc2ccccc2)s1
logD ([1]; read-out: logD): 3.5 | solubility thermodynamic [8]: < 1 µM

Compound: O=C(Cc1ccccc1)Nc1nnc(N[C@@H]2CCN(c3cccnn3)C2)s1
Time [23]: 10 h | bioavailability [2]: 2% | microsomal CLint [3]: 3 µL/min/mg | logD ([1]; read-out: logD): 2.2 | CL/F [24]: 101 mL/min/kg | solubility thermodynamic [8]: 14 µM (≈ 5.34 µg/mL) | hepatocyte CLint [4]: < 1 µL/min/1e6 cells | Vd [5]: 1.6 L/kg | hepatocyte CLint [6]: 2 µL/min/1e6 cells | clearance [7]: 50 mL/min/kg

Compound: O=C(NCc1ccccc1)c1nnc(N[C@@H]2CCN(c3nccnn3)C2)s1
microsomal CLint [3]: 3 µL/min/mg | logD ([1]; read-out: logD): 2.2 | solubility thermodynamic [8]: > 228 µM

Compound: O=C(Cc1ccccc1)Nc1nnc(N[C@@H]2CCN(c3nncs3)C2)s1
logD ([1]; read-out: logD): 2.1 | solubility thermodynamic [8]: 130 µM (≈ 50.4 µg/mL)

Compound: C[C@H](C(=O)Nc1nnc(N[C@@H]2CCN(c3cccnn3)C2)s1)c1ccccc1
bioavailability [2]: 0% | microsomal CLint [3]: < 3 µL/min/mg | Time [25]: 24 h | logD ([1]; read-out: logD): 2.6 | Vd [5]: 1.9 L/kg | hepatocyte CLint [6]: 8.7 µL/min/1e6 cells | solubility thermodynamic [12]: 329 µM (≈ 130 µg/mL) | clearance [7]: 55 mL/min/kg | Time [19]: 15 h

Compound: O=C(NCc1ccccc1)c1nnc(N[C@@H]2CCN(c3cccnn3)C2)s1
bioavailability [26]: 12% | microsomal CLint [3]: < 3 µL/min/mg | clearance [27]: 100 mL/min/kg | logD ([1]; read-out: logD): 2.24 | solubility thermodynamic [8]: > 559 µM | Vd [28]: 2.7 L/kg | hepatocyte CLint [6]: 31 µL/min/1e6 cells

Results, then the compound that gave them:

solubility thermodynamic [8]: < 0.4 µM
Compound: O=C(Cc1ccccc1)Nc1nnc(CCCCc2nnc(NC(=O)Cc3ccccc3)s2)s1

logD ([1]; read-out: logD): 3.6 | solubility thermodynamic [8]: < 0.6 µM
Compound: O=C(Cc1ccccc1)Nc1nnc(CCCc2nnc(NC(=O)Cc3ccccc3)s2)s1

logD ([1]; read-out: logD): 3.8 | solubility thermodynamic [8]: < 0.8 µM
Compound: O=C(Cc1ccccc1)Nc1nnc(N[C@@H]2CCN(c3nnc(NC(=O)Cc4ccccc4)s3)C2)s1

logD ([1]; read-out: logD): 4.3
Compound: O=C(Cc1ccccc1)Nc1nnc(N[C@@H]2CCC[C@H]2Nc2nnc(NC(=O)Cc3ccccc3)s2)s1

logD ([1]; read-out: logD): 1.9 | solubility thermodynamic [8]: 95 µM (≈ 38.2 µg/mL)
Compound: Nc1nnc(N2CC[C@@H](Nc3nnc(NC(=O)Cc4ccccc4)s3)C2)s1

logD ([1]; read-out: logD): 2.7 | solubility thermodynamic [8]: 20 µM (≈ 11.4 µg/mL)
Compound: CC(=O)N1CCCCC1CC(=O)Nc1nnc(N2CC[C@@H](Nc3nnc(NC(=O)Cc4ccccc4)s3)C2)s1 (some centres undefined)

logD ([1]; read-out: logD): 3.2 | solubility thermodynamic [8]: 10 µM (≈ 5.29 µg/mL)
Compound: O=C(Cc1ccccc1)Nc1nnc(N[C@@H]2CCN(c3nnc(NC(=O)CC4CCOCC4)s3)C2)s1

logD ([1]; read-out: logD): 1.8 | solubility thermodynamic [8]: 5 µM (≈ 2.01 µg/mL)
Compound: Nc1nnc(N[C@@H]2CCN(c3nnc(NC(=O)Cc4ccccc4)s3)C2)s1

solubility thermodynamic [8]: < 3 µM
Compound: O=C(Cc1ccccc1)Nc1nnc(NCCNc2nnc(NC(=O)Cc3ccccc3)s2)s1

logD ([1]; read-out: logD): 2.5 | solubility thermodynamic [8]: 3 µM (≈ 1.33 µg/mL)
Compound: CC(=O)Nc1nnc(N2CC[C@@H](Nc3nnc(NC(=O)Cc4ccccc4)s3)C2)s1

logD ([1]; read-out: logD): > 4.2 | solubility thermodynamic [8]: < 0.8 µM
Compound: O=C(Cc1ccccc1)Nc1nnc(NC[C@H]2CCN(c3nnc(NC(=O)Cc4ccccc4)s3)C2)s1

logD ([1]; read-out: logD): 1.3 | solubility thermodynamic [8]: 150 µM (≈ 81.3 µg/mL)
Compound: CN1CCC(CC(=O)Nc2nnc(N3CC[C@@H](Nc4nnc(NC(=O)Cc5ccccc5)s4)C3)s2)CC1
